Test [1] concerns Streptomyces albus. The experiment in a line: Antibacterial activity against Streptomyces albus NCIM 2178 at 5 ug/disk after 24 hr by disk diffusion method. Type of test: functional. To be noted: NCIM 2178, 24 h, read-out: DIZ. A general note: In agar diffusion tests the substance spreads into inoculated agar from a disc or well.
Test [2] has as its system Bacillus cereus. Description: Antibacterial activity against Bacillus cereus NCIM 2155 at 5 ug/disk after 24 hr by disk diffusion method. Type of test: functional. To be noted: NCIM 2155, 24 h, read-out: DIZ.
Test [3] deals with Bacillus subtilis. The experiment in a line: Antibacterial activity against Bacillus subtilis NCIM 2063 at 5 ug/disk after 24 hr by disk diffusion method. It is filed as functional. To be noted: NCIM 2063, 24 h, read-out: DIZ.
The subject of test [4] is Klebsiella aerogenes. Description: Antibacterial activity against Enterobacter aerogenes NCIM 2239 at 5 ug/disk after 24 hr by disk diffusion method. It is filed as functional. To be noted: NCIM 2239, 24 h, read-out: DIZ.
Test [5] deals with Pseudomonas aeruginosa. The experiment in a line: Antibacterial activity against Pseudomonas aeruginosa NCIM 2200 at 5 ug/disk after 24 hr by disk diffusion method. Type of test: functional. The settings on record: NCIM 2200, 24 h, read-out: DIZ.
Test [6] relates to Escherichia coli. Description: Antibacterial activity against Escherichia coli NCIM 2065 at 5 ug/disk after 24 hr by disk diffusion method. Type of test: functional. To be noted: NCIM 2065, 24 h, read-out: DIZ.
Test [7] has as its system Lipomyces lipofer. The experiment in a line: Antifungal activity against Lipomyces lipofer NCIM 3252 at 1000 ug/disk after 72 hr by disk diffusion method. To be noted: NCIM 3252, 72 h, read-out: DIZ. It is filed as functional.
Test [8] deals with Lipomyces lipofer. Description: Antifungal activity against Lipomyces lipofer NCIM 3252 at 500 ug/disk after 72 hr by disk diffusion method. It is filed as functional.
The subject of test [9] is Candida albicans. Description: Antifungal activity against Candida albicans NCIM 3471 at 1000 ug/disk after 72 hr by disk diffusion method. Type of test: functional. The settings on record: NCIM 3471, 72 h, read-out: DIZ.
The subject of test [10] is Candida albicans. Description: Antifungal activity against Candida albicans NCIM 3471 at 500 ug/disk after 72 hr by disk diffusion method. It is filed as functional.
Test [11] relates to Rhodotorula mucilaginosa. Description: Antifungal activity against Rhodotorula mucilaginosa NCIM 3174 at 1000 ug/disk after 72 hr by disk diffusion method. Type of test: functional. To be noted: NCIM 3174, 72 h, read-out: DIZ.
Test [12] deals with Rhodotorula mucilaginosa. Description: Antifungal activity against Rhodotorula mucilaginosa NCIM 3174 at 500 ug/disk after 72 hr by disk diffusion method. It is filed as functional.
Test [13] deals with Aspergillus flavus. Description: Antifungal activity against Aspergillus flavus NCIM 535 at 1000 ug/disk after 72 hr by disk diffusion method. The settings on record: NCIM 535, 72 h, read-out: DIZ. Type of test: functional.
The test system of test [14] is Aspergillus flavus. Description: Antifungal activity against Aspergillus flavus NCIM 535 at 500 ug/disk after 72 hr by disk diffusion method. It is filed as functional. The settings on record: NCIM 535, 72 h, read-out: DIZ.
The subject of test [15] is Aspergillus niger. The experiment in a line: Antifungal activity against Aspergillus niger NCIM 1196 at 1000 ug/disk after 72 hr by disk diffusion method. It is filed as functional.
Test [16] has as its system Aspergillus niger. The experiment in a line: Antifungal activity against Aspergillus niger NCIM 1196 at 500 ug/disk after 72 hr by disk diffusion method. It is filed as functional.
Test [17] relates to Penicillium chrysogenum. Description: Antifungal activity against Penicillium chrysogenum NCIM 707 at 1000 ug/disk after 72 hr by disk diffusion method. It is filed as functional. To be noted: NCIM 707, 72 h, read-out: DIZ.
For test [18], the system named is Penicillium chrysogenum. Description: Antifungal activity against Penicillium chrysogenum NCIM 707 at 500 ug/disk after 72 hr by disk diffusion method. Type of test: functional.
In test [19] the test system is Streptomyces albus. The experiment in a line: Antibacterial activity against Streptomyces albus NCIM 2178 at 1000 ug/disk after 24 hr by disk diffusion method. Type of test: functional. The settings on record: NCIM 2178, 24 h, read-out: DIZ.
Test [20] has as its system Streptomyces albus. Description: Antibacterial activity against Streptomyces albus NCIM 2178 at 500 ug/disk after 24 hr by disk diffusion method. Type of test: functional, organism-based.
Test [21] relates to Bacillus cereus. Description: Antibacterial activity against Bacillus cereus NCIM 2155 at 1000 ug/disk after 24 hr by disk diffusion method. To be noted: NCIM 2155, 24 h, read-out: DIZ. Type of test: functional.
Test [22] has as its system Bacillus cereus. Description: Antibacterial activity against Bacillus cereus NCIM 2155 at 500 ug/disk after 24 hr by disk diffusion method. It is filed as functional. The settings on record: NCIM 2155, 24 h, read-out: DIZ.
For test [23], the system named is Bacillus subtilis. The experiment in a line: Antibacterial activity against Bacillus subtilis NCIM 2063 at 1000 ug/disk after 24 hr by disk diffusion method. Type of test: functional. To be noted: NCIM 2063, 24 h, read-out: DIZ.
Test [24] concerns Bacillus subtilis. The experiment in a line: Antibacterial activity against Bacillus subtilis NCIM 2063 at 500 ug/disk after 24 hr by disk diffusion method. Type of test: functional.
Test [25] concerns Klebsiella aerogenes. The experiment in a line: Antibacterial activity against Enterobacter aerogenes NCIM 2239 at 1000 ug/disk after 24 hr by disk diffusion method. It is filed as functional. To be noted: NCIM 2239, 24 h, read-out: DIZ.
The test system of test [26] is Klebsiella aerogenes. The experiment in a line: Antibacterial activity against Enterobacter aerogenes NCIM 2239 at 500 ug/disk after 24 hr by disk diffusion method. Type of test: functional.
Test [27] has as its system Pseudomonas aeruginosa. The experiment in a line: Antibacterial activity against Pseudomonas aeruginosa NCIM 2200 at 1000 ug/disk after 24 hr by disk diffusion method. It is filed as functional. To be noted: NCIM 2200, 24 h, read-out: DIZ.
The subject of test [28] is Pseudomonas aeruginosa. Description: Antibacterial activity against Pseudomonas aeruginosa NCIM 2200 at 500 ug/disk after 24 hr by disk diffusion method. Type of test: functional.
Test [29] relates to Escherichia coli. The experiment in a line: Antibacterial activity against Escherichia coli NCIM 2065 at 1000 ug/disk after 24 hr by disk diffusion method. Type of test: functional. To be noted: NCIM 2065, 24 h, read-out: DIZ.
The test system of test [30] is Escherichia coli. Description: Antibacterial activity against Escherichia coli NCIM 2065 at 500 ug/disk after 24 hr by disk diffusion method. Type of test: functional. To be noted: NCIM 2065, 24 h, read-out: DIZ.
The test system of test [31] is Bacillus subtilis. The experiment in a line: Antibacterial activity against Bacillus subtilis NCIM 2063 after 24 hr by broth dilution assay. It is filed as functional. The settings on record: NCIM 2063, 24 h. (In broth dilution the organism is exposed to a series of concentrations in liquid medium.)
Test [32] has as its system Klebsiella aerogenes. Description: Antibacterial activity against Enterobacter aerogenes NCIM 2239 after 24 hr by broth dilution assay. The settings on record: NCIM 2239, 24 h. It is filed as functional.
Test [33] deals with Pseudomonas aeruginosa. The experiment in a line: Antibacterial activity against Pseudomonas aeruginosa NCIM 2200 after 24 hr by broth dilution assay. It is filed as functional. To be noted: NCIM 2200, 24 h.
Test [34] relates to Escherichia coli. The experiment in a line: Antibacterial activity against Escherichia coli NCIM 2065 after 24 hr by broth dilution assay. It is filed as functional. The settings on record: NCIM 2065, 24 h.
In test [35] the test system is Lipomyces lipofer. The experiment in a line: Antifungal activity against Lipomyces lipofer NCIM 3252 after 72 hr by broth dilution assay. Type of test: functional. The settings on record: NCIM 3252, 72 h.
The subject of test [36] is Candida albicans. Description: Antifungal activity against Candida albicans NCIM 3471 after 72 hr by broth dilution assay. To be noted: NCIM 3471, 72 h. Type of test: functional.
In test [37] the test system is Rhodotorula mucilaginosa. Description: Antifungal activity against Rhodotorula mucilaginosa NCIM 3174 after 72 hr by broth dilution assay. It is filed as functional. To be noted: NCIM 3174, 72 h.
The test system of test [38] is Aspergillus flavus. The experiment in a line: Antifungal activity against Aspergillus flavus NCIM 535 after 72 hr by broth dilution assay. Type of test: functional. To be noted: NCIM 535, 72 h.
Test [39] concerns Aspergillus niger. Description: Antifungal activity against Aspergillus niger NCIM 1196 after 72 hr by broth dilution assay. To be noted: NCIM 1196, 72 h. It is filed as functional.
The test system of test [40] is Penicillium chrysogenum. The experiment in a line: Antifungal activity against Penicillium chrysogenum NCIM 707 after 72 hr by broth dilution assay. It is filed as functional. To be noted: NCIM 707, 72 h.
In test [41] the test system is Streptomyces albus. Description: Antibacterial activity against Streptomyces albus NCIM 2178 after 24 hr by broth dilution assay. Type of test: functional. To be noted: NCIM 2178, 24 h.
Test [42] has as its system Bacillus cereus. Description: Antibacterial activity against Bacillus cereus NCIM 2155 after 24 hr by broth dilution assay. It is filed as functional. The settings on record: NCIM 2155, 24 h.

This is an account of results in ChEMBL document CHEMBL3045679, “Microwave-assisted synthesis and pharmacological studies of novel 5-deazaalloxazine derivatives” (2012).

Converted amounts (≈) assume the structure as drawn. The source made the active and inactive calls. The calls are words filed in the database; no cut-off is given here.

For `CC1COc2c(N3CCN(C)CC3)c(F)cc3c(=O)c(C(=O)O)cn1c23` (configuration not stated) [OFLOXACIN], the zone of inhibition at 5 µg/disc was 21 mm in [1]; 19 mm in [2]; 22 mm in [3]; 21 mm in [4]; 22 mm in test [5]; 23 mm in test [6].

Turning to `Cc1cccc2cc3c(=O)[nH]c(=O)[nH]c3nc12`, the zone of inhibition at 1000 µg/disc in test [7] amounted to 13 mm; in [9], 11 mm; in [11], 13 mm; in test [13], 13 mm; in [17] it was 9 mm; in [19], 10 mm. Besides, the zone of inhibition at 1000 µg/disc in test [21] turned out to be 12 mm; in test [23], 10 mm; in test [25] it was 13 mm; in [27] it was 11 mm; in [29], 15 mm. Further, the “diameter of the inhibition zone (DIZ)” value in [8], in [10], in test [12], in test [15], in test [16] and in test [18] was “inactive” in each case. For the same compound, the “diameter of the inhibition zone (DIZ)” value in [20], in test [24], in [26] and in test [28] was “inactive” each time. The zone of inhibition at 500 µg/disc in test [14] was 9 mm; in [22], 11 mm; in [30] it was 14 mm. The MIC came to 31.2 µg/mL (≈ 137 µM) in test [31]; 15.6 µg/mL (≈ 68.7 µM) in [32]; 7.8 µg/mL (≈ 34.3 µM) in [33]; 3.9 µg/mL (≈ 17.2 µM) in [34]; 31.2 µg/mL (≈ 137 µM) in test [35]; 31.2 µg/mL (≈ 137 µM) in [36]. Besides, the MIC in [37] was 15.6 µg/mL (≈ 68.7 µM); in test [38], 7.8 µg/mL (≈ 34.3 µM); in test [39] it was 125 µg/mL (≈ 550 µM); in [40], 62.5 µg/mL (≈ 275 µM); in [41], 62.5 µg/mL (≈ 275 µM); in test [42], 15.6 µg/mL (≈ 68.7 µM).

Usually MIC stands for the lowest concentration that inhibits growth of the organism.
